Biological target: EGFR (Homo sapiens, UniProt P00533)
Experiment: EGFR kinase assay kit (BPS Bioscience), Kinase-Glo MAX luminescence, poly(Glu:Tyr […]) substrate
Assay type: biochemical

Sequence of EGFR (P00533 25-1210): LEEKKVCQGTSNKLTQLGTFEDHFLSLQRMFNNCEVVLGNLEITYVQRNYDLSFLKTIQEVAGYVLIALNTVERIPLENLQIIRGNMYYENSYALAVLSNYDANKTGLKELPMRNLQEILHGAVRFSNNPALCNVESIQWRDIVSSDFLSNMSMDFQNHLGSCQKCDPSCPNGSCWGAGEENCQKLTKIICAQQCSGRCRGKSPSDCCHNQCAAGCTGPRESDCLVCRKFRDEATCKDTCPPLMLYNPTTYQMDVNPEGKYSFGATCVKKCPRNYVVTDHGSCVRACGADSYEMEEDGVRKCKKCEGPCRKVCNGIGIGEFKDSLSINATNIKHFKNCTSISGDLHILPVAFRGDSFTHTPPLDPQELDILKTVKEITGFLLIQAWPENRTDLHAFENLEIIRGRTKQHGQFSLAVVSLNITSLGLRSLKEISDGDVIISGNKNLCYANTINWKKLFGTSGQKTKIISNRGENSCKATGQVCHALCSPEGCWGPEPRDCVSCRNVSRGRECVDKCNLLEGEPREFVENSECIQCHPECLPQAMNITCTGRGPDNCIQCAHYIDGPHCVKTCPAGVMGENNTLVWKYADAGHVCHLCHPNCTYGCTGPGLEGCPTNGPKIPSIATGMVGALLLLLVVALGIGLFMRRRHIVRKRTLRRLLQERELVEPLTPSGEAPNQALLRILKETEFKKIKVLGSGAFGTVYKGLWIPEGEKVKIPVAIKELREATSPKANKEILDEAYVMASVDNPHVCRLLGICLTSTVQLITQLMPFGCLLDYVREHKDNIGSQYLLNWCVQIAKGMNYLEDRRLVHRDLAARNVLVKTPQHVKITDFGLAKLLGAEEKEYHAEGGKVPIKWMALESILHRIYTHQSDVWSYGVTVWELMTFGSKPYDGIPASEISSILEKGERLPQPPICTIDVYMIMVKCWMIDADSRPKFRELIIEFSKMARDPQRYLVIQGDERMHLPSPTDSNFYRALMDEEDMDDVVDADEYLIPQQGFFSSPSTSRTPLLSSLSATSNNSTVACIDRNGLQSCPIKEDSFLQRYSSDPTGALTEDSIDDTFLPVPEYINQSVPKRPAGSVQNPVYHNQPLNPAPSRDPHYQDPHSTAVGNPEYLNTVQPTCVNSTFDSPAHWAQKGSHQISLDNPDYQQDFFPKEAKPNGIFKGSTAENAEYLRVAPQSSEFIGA

`O=C(Nc1ccc(Br)cc1)NN1C(=O)c2ccccc2C1=O` [7c, 1-(4-Bromophenyl)-3-(1,3-dioxoisoindolin-2-yl)urea] was tested, and the IC50 was 42.9 ± 0.8 nM.

Reference: publication PMC10779787, “An Efficient Synthesis of 1-(1,3-Dioxoisoindolin-2-yl)-3-aryl Urea Analogs as Anticancer and Antioxidant Agents: An Insight into Experimental and In Silico Studies” (Molecules, 2023)
